# Laboratory results taken from US10265321B2, “Uses of salt-inducible kinase (SIK) inhibitors” (Dana-Farber Cancer Institute, Inc., priority 2014, dated 2019).
# Experiments:
# Assay type in all cases: cell-based, mouse
# [1] = tested on: naïve splenic CD4+ T cells differentiated to Treg or Tr1; assay: Treg and Tr1 T cell differentiation, viability, FoxP3 staining and IL-10 ELISA
# Method: Balb/c mice were euthanized and splenic CD4+CD62L+ T cells were magnetically enriched (Miltenyi Biotec) to >95% purity and cultured in DMEM media on plates pre-coated with anti-CD3 and anti-CD28 antibodies (clones 145-2C11 and 37.51; BioXCell). Culture media was supplemented with 10 μg/mL anti-IL-4 (clone 11B11; BioXCell), anti-IL-12 (clone C17.8; BioXCell), and anti-IFNγ (clone XMG1.2; BioXCell) as well as TGFβ (2 ng/mL; PeproTech). HG-9-91-01 (100 nM) or DMSO were added at day 0. Cultures were fed with DMEM+IL-2 (10 ng/mL, Peprotech) containing small molecules at day 2 and analyzed at day 4. Cells were stained with blue LIVE/DEADAqua stain (Invitrogen) to discriminate live cells, fixed with Foxp3 Permeabilization Buffer (eBioscience), stained with FITC anti-CD4 (clone RM4-5, Biolegend) and PE anti-Foxp3 (clone FJK-16S, eBioscience) and acquired on a FACSVerse (BD Biosciences). For Th0 and Tr1 differentiations, C57BL/6 mice were euthanized and splenic CD4+CD62L+ T cells were magnetically enriched (Miltenyi Biotec) to >95% purity and cultured in DMEM media on plates pre-coated with anti-CD3 and anti-CD28 antibodies (clones 145-2C11 and 37.51; BioXCell) in the absence of neutralizing antibodies. For Tr1 differentiations, the culture media was supplement with TGFβ (2 ng/mL; PeproTech) and rIL-27 (25 ng/mL; R&D Systems) as described previously (Gagliani N, et al. (2013) Coexpression of CD49b and LAG-3 identifies human and mouse T regulatory type 1 cells. Nature medicine 19(6):739-746). After 4 days, cells were harvested, washed in PBS and stained with LIVE/DEADGreen to discriminate viable cells and eFluor450 anti-CD4 (BioLegend) and acquired on a FACSVerse (BD Biosciences). Absolute cell numbers were enumerated by adding 5000 […] beads (Spherotech) to each well. Analysis was performed using Flowjo (Treestar) excluding samples were significant toxicity was observed. For all differentiation conditions, IL-10 levels were quantified in the culture media at day 4 by ELISA (BD Biosciences).
# [2] = tested on: Il10-Thy1.1 reporter in 10BiT BMDCs; assay: Il10-Thy1.1 reporter gene detection in 10BiT BMDCs; conditions: 2 days treatment (0.5 μM), zymosan 18 hr
# Method: (§1) Bone marrow-derived DCs were differentiated from C57BL/6 bone marrow in the presence of GM-CSF-conditioned media. CD11c^+ CX3CR1^hi myeloid cells and CD11c^+ CX3CR1^− DCs were isolated from the small intestine lamina propria of Cx3cr1^eGFP/+ mice (12). Detection of cell-surface Thy1.1 expression on BMDCs from 10BiT reporter mice was conducted as described previously (24). Cell viability was estimated by change in total cellular ATP levels using CellTiterGlo assays (Promega). Preparation of recombinant SIK proteins and IC50 measurements were conducted as described previously (21). Total RNA was extracted using a NucleoSpin 96 RNA isolation kit (Macherey-Nagel) followed by cDNA synthesis and multiplex RT-PCR using a microfluidic dynamic array (Fluidigm). The concentrations of TNF-α, IL-6, IL-10, IL-12p40, IL-1β and RANTES in culture supernatants were detected using a FlexSet Cytometric bead array (BD Biosciences). Alternatively, IL-10 secretion was quantified using ELISA (BD Biosciences) or AlphaLISA (PerkinElmer) assays. NO production was estimated based on nitrate content in culture medium using the Greiss reagent.
# Preparation of BMDCs from 10BiT reporter mice expressing an il10-Thy1.1 transgene, SIK inhibitor treatment and zymosan stimulation was conducted as described above. […]
# BMDCs = assay: Cytokine (cytometric bead array) and NO (Greiss) production by stimulated BMDCs
# Method: as §1
# C57BL/6 mice were euthanized and bone marrow harvested from femurs and tibias as described previously (Graham D B, et al. (2007) An ITAM-signaling pathway controls cross-presentation of particulate but not soluble antigens in dendritic cells. The Journal of experimental medicine 204(12):2889-2897). BMDCs were differentiated DMEM supplemented with 2 mM GlutaMAX, 10% (vol/vol) FBS, penicillin, streptomycin and 2% mouse GM-CSF conditioned media derived from TOPO cells. Cultures were differentiated for 7 days and routinely analyzed for >90% CD11c (APC anti-CD11c clone HL3; BD Biosciences) positivity by flow cytometry before use in experiments. Lentiviral transduction of bone marrow cultures was conducted by addition of 293T culture supernatants containing lentiviral particles encoding the CREB dependent luciferase reporter construct or CRTC3 targeting or control shRNAs one day post-isolation. Stable integration of lentiviral shRNA constructs was selected by addition of puromycin (3 μg/mL) on day 4 post-transduction. After 2 days, stably transduced BMDCs were released from selection and used in subsequent assays. Unless otherwise indicated, cells were treated for 2 days with PGE2 (5 μM) or HG-9-91-01 (0.5 μM) or an equivalent concentration of DMSO (≤0.5%) and then stimulated for 18 hr with LPS (100 ng/mL), R848 (10 μg/mL) or zymosan (4 μg/mL).
# After stimulation of cells with microbial ligands, the culture medium was removed, clarified by centrifugation for 10 min at 14,000×g, and the concentration of TNF-α, IL-6, IL-10, IL-12p40, IL-1β and RANTES were measured using FlexSet Cytokine Bead Array (BD Biosciences) according to the manufacturer's instructions. Where indicated, ELISAs were used to detect IL-10 and IL-12p70 (BD Biosciences) according to the manufacturer's instructions. NO production was estimated based on nitrate content in culture medium using the Greiss reagent as described previously (Miletic A V, et al. (2007) Vav proteins control MyD88-dependent oxidative burst. Blood 109(8):3360-3368).
compound,measurement,setting,value
COc1ccc(N(C(=O)Nc2c(C)cccc2C)c2cc(Nc3ccc(N4CCN(C)CC4)cc3)ncn2)c(OC)c1 [HG-9-91-01],fraction of Foxp3+ cells and IL-10 secretion of Treg's,"[1]; 100 nM, 4 days",did not increase the fraction of Foxp3^+ cells or promote IL-10 secretion
same,concentrations toxic in Treg's and Tr1 cells,[1]; 4 days differentiation,greater than 0.5 μM
same,IL-10 secretion by Tr1 cells,"[1]; non-toxic concentrations, 4 days",not further enhanced
same,enhancement of the fraction of BMDCs expressing Il10 following zymosan stimulation,[2],more than 5 fold
same,IL-10 secretion,"BMDCs; BMDCs pre-treated, LPS, R848 or zymosan 18 hr",similarly induced
same,IL-1β production,"BMDCs; BMDCs, stimulation with R848 or zymosan",suppressed
same,production of IL-12p40 and TNF-α,"BMDCs; BMDCs, versus PGE2, regardless of activating stimuli",suppressed to a significantly greater extent
